Key:
[1] = test system: AMI patients undergoing primary PTCA; settings: in vivo
Procedure: (§1) Fifty four AMI patients undergoing primary PTCA were randomized to intracoronary adenosine or saline. The 2 groups were similar for age, sex, and infarct location. Patients referred for PTCA within 3 hours from the onset of AMI were considered for the study. Patients underwent diagnostic coronary angiography. If the culprit lesion was suitable for PTCA and presented with a TIMI flow from 0 to 2, the patient was included in the study and randomized after informed consent had been obtained. Patients presenting with TIMI 3 flow were diagnosed as having spontaneous reperfusion and were not included in the study.
After left and right coronary arteriography by the femoral approach, a temporary pacing wire was advanced into the right ventricle and connected with a pacemaker left on demand at 60 bpm. […] The guidewire was then readvanced into the distal vessel, and the balloon was deflated to initiate reperfusion of the ischemic territory. […]
(§2) The primary end points of this study were feasibility and safety of intracoronary adenosine administration in the setting of primary PTCA and its effect on coronary blood flow. As secondary end points, indexes of myocardial damage, including left ventricular regional function, Q-wave MI, recurrence of angina, nonfatal MI, heart failure, and cardiac death were evaluated.

infarct-related artery = test: Angiographic analysis (residual stenosis, TIMI flow, no-reflow) after primary PTCA; format: in vivo, human
Procedure: as §1
After left and right coronary arteriography by the femoral approach, a temporary pacing wire was advanced into the right ventricle and connected with a pacemaker left on demand at 60 bpm. The obstruction of the infarct-related artery was crossed with a 0.014-in guidewire, and an over-the-wire balloon catheter was positioned at the level of the obstruction. The wire was pulled out, and diluted contrast was injected through the central lumen of the catheter to confirm positioning of the catheter tip downstream of the obstruction and to assess patency of the distal vessel. The balloon was inflated, and either adenosine (4 mg in 2 mL saline) or saline (2 mL) was hand-injected into the distal vascular bed in a random fashion. The rate of injection was such as to complete treatment in 1 minute. The guidewire was then readvanced into the distal vessel, and the balloon was deflated to initiate reperfusion of the ischemic territory. The dilatation procedure was completed according to standard technique. Stenting of the dilated coronary segment was performed only for suboptimal balloon results or flow-limiting dissections. […]
The angiograms were reread as a single group, in chronological sequence, by observers who had not participated in the invasive procedure and were blinded to the treatment received. […] Diameter stenosis was measured by an automatic edge-detection system (Mipron, Kontron). […]

[2] = test system: AMI patients undergoing primary PTCA; test: Clinical events / clinical course in hospital after primary PTCA; format: in vivo, human
Procedure: as §1
(§3) After left and right coronary arteriography by the femoral approach, a temporary pacing wire was advanced into the right ventricle and connected with a pacemaker left on demand at 60 bpm. The obstruction of the infarct-related artery was crossed with a 0.014-in guidewire, and an over-the-wire balloon catheter was positioned at the level of the obstruction. The wire was pulled out, and diluted contrast was injected through the central lumen of the catheter to confirm positioning of the catheter tip downstream of the obstruction and to assess patency of the distal vessel. The balloon was inflated, and either adenosine (4 mg in 2 mL saline) or saline (2 mL) was hand-injected into the distal vascular bed in a random fashion. The rate of injection was such as to complete treatment in 1 minute. The guidewire was then readvanced into the distal vessel, and the balloon was deflated to initiate reperfusion of the ischemic territory. The dilatation procedure was completed according to standard technique. Stenting of the dilated coronary segment was performed only for suboptimal balloon results or flow-limiting dissections. […] The final angiogram was then obtained, and the patient was transferred to the intensive coronary care unit. If symptoms and/or ECG changes consistent with vessel reclosure occurred during this interval, coronary angiography was performed immediately, and therapeutic measures were applied. The dilation procedure was limited to the culprit lesion in all patients.
as §2
Physicians in charge of the patients in the intensive coronary care unit were informed of the angiographic results of the PTCA but were blinded to the intracoronary treatment administered during the procedure.

[3] = test system: AMI patients undergoing primary PTCA; test: Metabolic data: creatine kinase (CK) and CK-MB; format: in vivo, human; settings: mean ± SD
Procedure: as §1
After left and right coronary arteriography by the femoral approach, a temporary pacing wire was advanced into the right ventricle and connected with a pacemaker left on demand at 60 bpm. The obstruction of the infarct-related artery was crossed with a 0.014-in guidewire, and an over-the-wire balloon catheter was positioned at the level of the obstruction. The wire was pulled out, and diluted contrast was injected through the central lumen of the catheter to confirm positioning of the catheter tip downstream of the obstruction and to assess patency of the distal vessel. […] The guidewire was then readvanced into the distal vessel, and the balloon was deflated to initiate reperfusion of the ischemic territory. […]

left ventricle = test: Left ventricular regional function by 2D echocardiography; format: in vivo, human; settings: echocardiogram after 1 week vs admission
Procedure: as §1, §3
Left ventricular function was evaluated by 2D echocardiography within 24 hours from admission and after 1 week. Echocardiography was performed with the patient lying supine with a 2.5-MHz transducer fitted to a dedicated system (Hewlett-Packard Sonos 1500). Images were recorded on S-VHS tapes and analyzed offline by 2 experienced observers blinded to the angiographic data. Four views were used: the parasternal long- and short-axis (at the level of the papillary muscle) and apical 2- and 4-chamber views. The left ventricle was divided into 16 segments. In each segment, wall motion was graded as normal, hypokinetic, akinetic, or dyskinetic. Segmental motion at admission was compared with segmental motion at 1 week to detect changes of regional function.

[4] = intracoronary adenosine 4 mg in 2 mL saline, n = 27

Nc1ncnc2c1ncn2[C@@H]1O[C@H](CO)[C@@H](O)[C@H]1O [Adenosine, adenosine]
Bradyarrhythmias or tachyarrhythmias associated with protocol [1]: No bradyarrhythmias or tachyarrhythmias | Residual diameter stenosis by quantitative coronary arteriography (infarct-related artery; after PTCA, mean ± SD): 27.8±9.5% | Flow in the infarct-related artery (TIMI grade) (infarct-related artery; at the end of the dilation procedure): TIMI 3 in all adenosine patients | No-reflow phenomenon (drop of ≧1 TIMI grades in final angiogram relative to post-PTCA angiogram) (infarct-related artery; final angiogram 30 minutes after dilation, n = 27): 1 patient | Length of hospital stay ([2]; hospital stay): 9.1 ± 0.8 days | Recurrent angina and/or ischemia ([2]; intracoronary adenosine 4 mg in 2 mL saline into distal vascular bed before balloon deflation, n = 27): 3(11) number (%) of patients | Cardiac death [2, 4]: 0(0) number (%) of patients | Cumulative clinical end points (recurrent angina and/or ischemia, non-fatal AMI, heart failure, cardiac death) [2, 4]: 5(18) number (%) of patients | Heart failure [2, 4]: 2(7) number (%) of patients | Nonfatal AMI [2, 4]: 0(0) number (%) of patients | Clinical diagnosis of heart failure ([2]; n = 27): Two | Composite end point of recurrent angina, nonfatal MI, heart failure, and cardiac death ([2]; n = 27): 5 patients | Deaths in hospital ([2]; n = 27): No deaths | Developed a Q-wave ML ([2]; n = 27): Sixteen | Recurrence of angina ([2]; n = 27): Three | Peak CK [3]: 1994±1782 U/L | Peak CK-MB [3]: 156±142 UAL | Regional wall motion unchanged (left ventricle): 38 segments | Worsening of wall motion, share of segments (left ventricle): 2% | Wall motion improved, share of initially dyssynergic segments (left ventricle; 114 dyssynergic segments): 64% | Worsening of wall motion (left ventricle; 114 dyssynergic segments): 3 segments | Wall motion improved, initially dyssynergic segments (left ventricle; 114 dyssynergic segments, 23 patients): 73 segments
